Experiments:
Mus musculus = assay: Toxicity in ip dosed C3H X DBA2 F1 hybrid mouse […] with mouse L1210 cells on day 0 and dosed once daily on days 1 to 5 measured after 50 days; assay type: organism-based; conditions: in vivo, 1200 h
L1210 [1] = assay: Antitumor activity against mouse L1210 cells […] in ip dosed C3H X DBA2 F1 hybrid mouse on day 0 and dosed at LD10 level once daily on days 1 to 5 assessed as increase in life span relative to control; assay type: functional
[2] = Lipophilic-hydrophilic balance, Rm of the compound by partition chromatography; assay type: physicochemical
L1210 [3] = assay: Antitumor activity against mouse L1210 cells […] in ip dosed C3H X DBA2 F1 hybrid mouse on day 0 and dosed once daily on days 1 to 5 assessed as increase in life span relative to control; assay type: functional

SMILES | LD10 (Mus musculus) [mg/kg] | log(ILSmax) (L1210 [1]) | Rm [2] | D40 (L1210 [3]) [mg/kg]
CC[n+]1cccc(C(=O)Nc2ccc(NC(=O)c3ccc(C(=O)Nc4ccc5c(ccc[n+]5CC)c4)cc3)cc2)c1.Cc1ccc(S(=O)(=O)[O-])cc1.Cc1ccc(S(=O)(=O)[O-])cc1 | 6 | 1.89 | -0.12 | 3.1
CC[n+]1cc(-c2ccc(NC(=O)c3ccc(Nc4cc[n+](CC)c5ccccc45)cc3)cc2)c(N)nc1N.[I-].[I-] | 32 | 2.11 | 0.45 | 3.3
CCC[n+]1cc(-c2ccc(NC(=O)c3ccc(Nc4cc[n+](CCC)c5ccccc45)cc3)cc2)c(N)nc1N.[I-].[I-] | 40 | 1.85 | 0.68 | 15.8
CC[n+]1cccc2cc(NC(=O)c3ccc(C(=O)Nc4ccc5c(ccc[n+]5CC)c4)nc3)ccc21.Cc1ccc(S(=O)(=O)[O-])cc1.Cc1ccc(S(=O)(=O)[O-])cc1 | 6 | 1.42 | -0.15 | 6
CCCC[n+]1cccc(NC(=O)c2ccc(NC(=O)c3ccc(C(=O)Nc4ccc5c(ccc[n+]5CCCC)c4)cc3)cc2)c1.Cc1ccc(S(=O)(=O)[O-])cc1.Cc1ccc(S(=O)(=O)[O-])cc1 | 32 | 1.6 | 0.85 | 32
CCCC[n+]1cccc2cc(NC(=O)c3ccc(C(=O)Nc4ccc5c(ccc[n+]5CCCC)c4)nc3)ccc21.Cc1ccc(S(=O)(=O)[O-])cc1.Cc1ccc(S(=O)(=O)[O-])cc1 | 175 | 1.87 | 0.31 | 120
CC[n+]1c(C)cc(Nc2ccc(NC(=O)c3ccc(C(=O)Nc4ccc(Nc5cc(C)[n+](CC)c(N)n5)cc4)cc3)cc2)nc1N.Cc1ccc(S(=O)(=O)[O-])cc1.Cc1ccc(S(=O)(=O)[O-])cc1 | 200 | 2.09 | -0.4 | 69
CCCCC[n+]1cccc2cc(NC(=O)c3ccc(C(=O)Nc4ccc5c(ccc[n+]5CCCCC)c4)cc3)ccc21.Cc1ccc(S(=O)(=O)[O-])cc1.Cc1ccc(S(=O)(=O)[O-])cc1 | 57 | 1.62 | 0.92 | 55
CCCC[n+]1cccc2cc(NC(=O)c3ccc(NC(=O)c4ccc(C(=O)Nc5ccc6c(ccc[n+]6CCCC)c5)cc4)cc3)ccc21.Cc1ccc(S(=O)(=O)[O-])cc1.Cc1ccc(S(=O)(=O)[O-])cc1 | 100 | 1.91 | 0.26 | 41
CC[n+]1cccc(NC(=O)c2ccc(NC(=O)c3ccc(C(=O)Nc4ccc(C(=O)Nc5ccc[n+](CC)c5)cc4)c(Cl)c3)cc2)c1.Cc1ccc(S(=O)(=O)[O-])cc1.Cc1ccc(S(=O)(=O)[O-])cc1 | 29 | 1.7 | 0.42 | 22
C[n+]1cccc(NC(=O)c2ccc(NC(=O)c3ccc(C(=O)Nc4ccc(C(=O)Nc5ccc[n+](C)c5)cc4)cc3)cc2)c1.[I-].[I-] | 17 | 2.02 | -0.12 | 7.5
CC[n+]1ccc(Nc2ccc(NC(=O)c3ccc(Nc4cc[n+](CC)c5ccc(N)cc45)cc3N)cc2)cc1.[I-].[I-] | 17 | 2.33 | 0.37 | 1.4
CCC[n+]1cccc2cc(NC(=O)/C=C/c3ccc(C(=O)Nc4ccc5c(ccc[n+]5CCC)c4)cc3)ccc21.Cc1ccc(S(=O)(=O)[O-])cc1.Cc1ccc(S(=O)(=O)[O-])cc1 | 20 | 2 | 0.5 | 4.3
CCC[n+]1cccc2cc(NC(=O)c3ccc(NC(=O)c4ccc(C(=O)Nc5ccc6c(ccc[n+]6CCC)c5)cc4)cc3)ccc21.Cc1ccc(S(=O)(=O)[O-])cc1.Cc1ccc(S(=O)(=O)[O-])cc1 | 95 | 1.92 | -0.21 | 38
CC[n+]1ccc(Nc2ccc(NC(=O)c3ccc(C(=O)Nc4ccc(Nc5cc[n+](CC)cc5)cc4)cc3)cc2)cc1.Cc1ccc(S(=O)(=O)[O-])cc1.Cc1ccc(S(=O)(=O)[O-])cc1 | 2.5 | 2.24 | 0.46 | 0.5
CC[n+]1ccc(-c2ccc(NC(=O)c3ccc(Nc4cc[n+](CC)c5ccccc45)cc3)cc2)cc1.Cc1ccc(S(=O)(=O)[O-])cc1.Cc1ccc(S(=O)(=O)[O-])cc1 | 10 | 1.98 | 0.55 | 2.7
CC[n+]1cccc(NC(=O)c2ccc(NC(=O)c3ccc(C(=O)Nc4ccc(C(=O)Nc5ccc[n+](CC)c5)cc4)c(OC)c3)cc2)c1.Cc1ccc(S(=O)(=O)[O-])cc1.Cc1ccc(S(=O)(=O)[O-])cc1 | 20 | 1.85 | 0.55 | 18

SMILES | LD10 (Mus musculus) [mg/kg] | log(ILSmax) (L1210 [1]) | Rm [2] | D40 (L1210 [3]) [mg/kg]
CC[n+]1ccc(Nc2ccc(C(=O)Nc3ccc(Nc4cc[n+](CC)c5ccc(N)cc45)cc3)cc2)cc1.[I-].[I-] | 9 | 2.23 | 0.19 | 0.7
CCC[n+]1cccc2cc(NC(=O)COc3ccc(C(=O)Nc4ccc5c(ccc[n+]5CCC)c4)cc3)ccc21.Cc1ccc(S(=O)(=O)[O-])cc1.Cc1ccc(S(=O)(=O)[O-])cc1 | 8.3 | 1.59 | 0.15 | 6.3
CCC[n+]1cccc2cc(NC(=O)c3ccc(C(=O)Nc4ccc5c(ccc[n+]5CCC)c4)cc3)ccc21.Cc1ccc(S(=O)(=O)[O-])cc1.Cc1ccc(S(=O)(=O)[O-])cc1 | 21 | 1.89 | 0.3 | 15
CCC[n+]1cccc(NC(=O)c2ccc(NC(=O)c3ccc(C(=O)Nc4ccc5c(ccc[n+]5CCC)c4)cc3)cc2)c1.Cc1ccc(S(=O)(=O)[O-])cc1.Cc1ccc(S(=O)(=O)[O-])cc1 | 20 | 2.17 | 0.44 | 10.2
CC[n+]1cccc(NC(=O)c2ccc(NC(=O)c3ccc(C(=O)Nc4ccc(C(=O)Nc5ccc[n+](CC)c5)cc4OC)cc3)c(OC)c2)c1.Cc1ccc(S(=O)(=O)[O-])cc1.Cc1ccc(S(=O)(=O)[O-])cc1 | 25 | 1.86 | -0.15 | 10.3
CCC[n+]1cccc2cc(NC(=O)c3ccc(-c4ccc(-c5ccc(-c6ccc(C(=O)Nc7ccc8c(ccc[n+]8CCC)c7)cc6)cc5)cc4)cc3)ccc21.Cc1ccc(S(=O)(=O)[O-])cc1.Cc1ccc(S(=O)(=O)[O-])cc1 | 45 | 2.01 | 0.49 | 17
CC[n+]1cccc2cc(NC(=O)/C=C/c3ccc(C(=O)Nc4ccc5c(ccc[n+]5CC)c4)cc3)ccc21.Cc1ccc(S(=O)(=O)[O-])cc1.Cc1ccc(S(=O)(=O)[O-])cc1 | 9 | 1.7 | 0.11 | 5
CC[n+]1cccc2cc(NC(=O)c3ccc(NC(=O)c4ccc(C(=O)Nc5ccc6c(ccc[n+]6CC)c5)cc4)cc3)ccc21.Cc1ccc(S(=O)(=O)[O-])cc1.Cc1ccc(S(=O)(=O)[O-])cc1 | 45 | 2.05 | -0.52 | 13
CC[n+]1cccc2cc(NC(=O)COc3ccc(C(=O)Nc4ccc5c(ccc[n+]5CC)c4)cc3)ccc21.Cc1ccc(S(=O)(=O)[O-])cc1.Cc1ccc(S(=O)(=O)[O-])cc1 | 4 | 1.4 | -0.11 | 4
CC[n+]1ccc(Nc2ccc(NC(=O)/C=C/c3ccc(C(=O)Nc4ccc(Nc5cc[n+](CC)cc5)c(N)c4)cc3)cc2N)cc1.[Br-].[Br-] | 7.5 | 2.3 | 0.35 | 1.4
CCC[n+]1cc(-c2ccc(NC(=O)c3ccc(Nc4cc[n+](CCC)c5ccc(N)cc45)cc3N)cc2)c(N)nc1N.Cc1ccc(S(=O)(=O)[O-])cc1.Cc1ccc(S(=O)(=O)[O-])cc1 | 50 | 2.03 | 0.56 | 13.7
CCCC[n+]1cccc2cc(NC(=O)c3ccc(C(=O)Nc4ccc5c(ccc[n+]5CCCC)c4)cc3)ccc21.Cc1ccc(S(=O)(=O)[O-])cc1.Cc1ccc(S(=O)(=O)[O-])cc1 | 59 | 2.04 | 0.67 | 25
CC[n+]1ccc(Nc2ccc(NC(=O)/C=C/c3ccc(C(=O)Nc4ccc(Nc5cc[n+](CC)cc5)cc4)cc3)cc2)cc1.Cc1ccc(S(=O)(=O)[O-])cc1.Cc1ccc(S(=O)(=O)[O-])cc1 | 8 | 2.2 | -0.03 | 1.6
CCC[n+]1cccc(NC(=O)c2ccc(NC(=O)c3ccc(C(=O)Nc4ccc(C(=O)Nc5ccc[n+](CCC)c5)cc4OC)cc3)c(OC)c2)c1.Cc1ccc(S(=O)(=O)[O-])cc1.Cc1ccc(S(=O)(=O)[O-])cc1 | 140 | 1.6 | 0.3 | 140
CCC[n+]1ccc(Nc2ccc(NC(=O)/C=C/c3ccc(/C=C/C(=O)Nc4ccc(Nc5cc[n+](CCC)cc5)cc4)cc3)cc2)cc1.[Br-].[Br-] | 25 | 1.85 | 0.46 | 13
CCC[n+]1cccc2cc(NC(=O)c3ccc(C(=O)Nc4ccc(NC(=O)c5ccc6c(ccc[n+]6CCC)c5)cc4)cc3)ccc21.Cc1ccc(S(=O)(=O)[O-])cc1.Cc1ccc(S(=O)(=O)[O-])cc1 | 80 | 2.08 | 0 | 60
